Results from patent US6518300B2, “Treatment of lipid metabolic disorders using 5-(1,2-dithiolan-3-yl) valeric acid (α-lipoic acid) or its physiologically compatible salts” (BiRD Berolina innovative Research and Development GmbH, priority 1998, dated 2003).

What was measured:
[1] = doses of approximately 600 mg/day; treatment of polyneuropathy; cited from earlier work
[2] = open observational study of blood lipid values under α-lipoic acid therapy; total population and individual-parameter analysis; format: in vivo, patients
Procedure: A somewhat smaller group was treated with α-lipoic acid, but not with captopril (n=280). The treatment time extended over approximately 3 months. α-Lipoic acid was predominantly administered orally or parenterally in a dose of 600 mg per day. Captopril was ingested orally in daily doses of 12.5 to 50 mg. At the beginning of therapy and at the end of observation after three months, the blood lipid values were optionally recorded. […] Because of the different basic treatment, the patients with combined therapy of α-lipoic acid and captopril and those with a single therapy with α-lipoic acid were placed in subgroups for this purpose: the 160 remaining patients (those with single therapy with captopril, n=154; those without treatment data n=6) were not included in the further analysis, since in this remaining group, only a small, incomparable number of patients had initial values corresponding to the range named under point 2 (triglycerides n=0, total cholesterol n=63, HDL cholesterol n=0, LDL cholesterol n=32). In a first analysis, the parameters were represented independently of one another, i.e., all patients, who had the initial values given below for the parameter, were included for each parameter: triglycerides >6 mmoles/l; total cholesterol >6 mmoles/l HDL cholesterol 0.7-0.8 mmole/l; LDL cholesterol >2.5 mmoles/l. The limits of the range were selected based on the studies reported in the literature (H. Thuro, Effective decrease in cholesterol and triglycerides with atorvastatin, Supplement in Der Internist 1996; 37 (8), 1-8).

[3] = same observational study; patients assigned to three groups by disease pattern (DGFF guidelines); format: in vivo
Procedure: A somewhat smaller group was treated with α-lipoic acid, but not with captopril (n=280). The treatment time extended over approximately 3 months. α-Lipoic acid was predominantly administered orally or parenterally in a dose of 600 mg per day. Captopril was ingested orally in daily doses of 12.5 to 50 mg.
In another consideration, the patients were assigned to three groups on the basis of their disease pattern, independent of the form of therapy, according to the “Guidelines of the German Association for Combatting Disorders of Lipid Metabolism and Their Sequelae DGFF (Lipid-Liga) e.V.” (Supplement to the German Ärzteblatte 1996; 4, 1-8):
1) isolated LDL-hypercholesterolemia (LDL>4.14, triglycerides≦2.2 mmoles/l);
2) combined LDL-hypercholesterolemia (LDL>4.14, triglycerides>2.2 mmoles/l);
3) isolated hypertriglyceridemia (LDL≦4.14, triglycerides>2.2 mmoles/l).
Standard values from the literature were set as limiting values (Wilson et al., Harrison's Principles of Internal Medicine, 12Edition, McGraw-Hill, 1991).
Sixty-two patients were placed in the first group, 112 patients in the second group, and 83 patients in the third group.

[4] = total population, start vs end of observation after three months, predominantly 600 mg per day
[5] = group 2 combined LDL-hypercholesterolemia
[6] = group 2 combined LDL-hypercholesterolemia, 91 paired values, p<0.0001

For `O=C(O)CCCCC1CCSS1` (stereo not drawn) [α-lipoic acid, 5-(1,2-dithiolan-3-yl) valeric acid], the “compatibility of oral and parenteral therapy” value [1] is given as “very good”, the “HDL cholesterol, mean end value” ([2]; patients with initial HDL 0.7-0.8 mmole/l, all patients, prior mean 0.76 (n=33), end n=13, increase not significant) is given as 0.97 mmol/L and the “percent increase of HDL cholesterol, on average” value ([2]; patients with initial HDL 0.7-0.8 mmole/l, not significant) is given as “over 20%”. The “LDL cholesterol, mean end value” ([2]; patients with initial LDL >2.5 mmoles/l, all patients, prior mean 4.41 (n=336), end n=208, p<0.001) was 4.03 mmol/L, the “percent decrease of LDL cholesterol, on average” value ([2]; patients with initial LDL >2.5 mmoles/l, in all groups) was “approximately 10%” and the “mean percent decrease of total cholesterol” value ([2]; patients with initial total cholesterol >6 mmoles/l, in all groups) was “approximately 10%”. For the same compound, the “total cholesterol, mean end value” ([2]; patients with initial total cholesterol >6 mmoles/l, prior mean 7.32 (n=853), 570 paired values, p<0.0001) was 6.57 mmol/L, the “triglycerides, mean end value” ([2]; patients with initial triglycerides >6 mmoles/l, all patients, prior mean 8.96 (n=33), end n=26, p<0.05, approx. 3 months) was 7.16 mmol/L and the “mean percentual decrease of triglycerides” value ([2]; patients with initial triglycerides >6 mmoles/l, in all groups (total, combined with captopril, single therapy)) was “greater than 20%”. For the same compound, the “observed changes of all lipid parameters, single therapy compared with combined therapy with captopril” value ([2]; single therapy of α-lipoic acid vs combined therapy with captopril) was “more strongly pronounced”, the “change of HDL cholesterol” value [2, 4] was “slight increase” and the “change of LDL cholesterol” value [2, 4] was “statistically striking decrease”. For the same compound, the “change of total cholesterol” value [2, 4] was “statistically striking decrease”, the change of triglycerides ([2]; total population, start vs end of observation after three months, predominantly 600 mg per day oral or parenteral) was “statistically striking decrease” and the “HDL cholesterol, percent increase” value ([3]; group 1, 34 paired values, not significant) was “approximately 10%”. For the same compound, the “total cholesterol, percent decrease” value ([3]; group 1 isolated LDL-hypercholesterolemia) was 8%, the “total cholesterol, end value” ([3]; group 1 isolated LDL-hypercholesterolemia, initial 7.01 (n=62), end n=40) was 6.49 mmol/L and the “LDL cholesterol, mean percent decrease” value ([3]; group 1 isolated LDL-hypercholesterolemia, p<0.0001) was 16%. For the same compound, the “HDL cholesterol, end value” ([3]; group 1 isolated LDL-hypercholesterolemia, prior 1.29 (n=61), end n=34) was 1.34 mmol/L, the “triglycerides, average end value” ([3]; group 1 isolated LDL-hypercholesterolemia, prior 1.69, n=38, increase not significant) was 1.70 mmol/L and the “LDL cholesterol, end value” ([3]; group 1 isolated LDL-hypercholesterolemia, prior 5.02, n=33) was 4.33 mmol/L. For the same compound, the “HDL cholesterol, percent increase” value [3, 5] was 4.5%, the “total cholesterol, percent decrease” value [3, 5] was about 10% and the “triglycerides, absolute difference (decrease)” value [3, 6] was 0.83 mmol/L. The “triglycerides, percent decrease” value [3, 6] was 20%, the “LDL cholesterol, mean percent decrease” value ([3]; group 2 combined LDL-hypercholesterolemia, p<0.0001) was 14% and the “HDL cholesterol, end value” ([3]; group 2 combined LDL-hypercholesterolemia, prior 1.15 (n=108), end n=77) was 1.15 mmol/L. For the same compound, the “LDL cholesterol, end value” ([3]; group 2 combined LDL-hypercholesterolemia, prior 5.42, n=74) was 4.75 mmol/L, the “total cholesterol, end value” ([3]; group 2 combined LDL-hypercholesterolemia, prior 7.71 (n=112), end n=94) was 6.86 mmol/L and the “triglycerides, end value” ([3]; group 2 combined LDL-hypercholesterolemia, prior value 3.75, 91 paired values) was 2.74 mmol/L. For the same compound, the “HDL cholesterol, percent increase” value ([3]; group 3, 59 paired values, p<0.01) was “approximately 15%”, the “total cholesterol, percent decrease” value ([3]; group 3 isolated hypertriglyceridemia) was “about 5%” and the “LDL cholesterol, end value” ([3]; group 3 isolated hypertriglyceridemia, initial 3.29, n=59, change not significant) was 3.23 mmol/L. For the same compound, the “total cholesterol, end value” ([3]; group 3 isolated hypertriglyceridemia, initial 6.31 (n=83), end n=67) was 5.88 mmol/L, the “triglycerides, percent reduction” value ([3]; group 3 isolated hypertriglyceridemia, n=67, p<0.0001) was “about 16%” and the “HDL cholesterol, end value” ([3]; group 3 isolated hypertriglyceridemia, prior 1.19 (n=83), end n=59) was 1.31 mmol/L. For the same compound, the “triglycerides, end value” ([3]; group 3 isolated hypertriglyceridemia, prior 3.33 (n=83), n=67, p<0.0001) was 2.69 mmol/L, the “decrease in ratio of LDL to HDL cholesterol” value ([3]; isolated LDL hypercholesterolemia (group 1)) was 16.97% and the “ratio of LDL to HDL cholesterol, end value” ([3]; isolated LDL hypercholesterolemia (group 1), prior value 3.89) was 3.23. The “decrease in ratio of LDL to HDL cholesterol” value ([3]; mixed hyperlipidemia (group 2)) was 12.31%, the “ratio of LDL to HDL cholesterol, end value” ([3]; mixed hyperlipidemia (group 2), prior value 4.71) was 4.13 and the “improvement in ratio of LDL to HDL cholesterol” value ([3]; patients without LDL cholesterinolemia (group 3), initial value in normal range) was 10.51%.
